Data published in patent US4434159A, “Pharmaceutical composition for intrarectal administration, and suppository prepared therefrom” (Teijin Limited, priority 1980, dated 1984).

Assays:
[1] = tested on: mucous membrane of the eyes (cornea, iris, conjunctiva); assay: Draize eye irritation test of absorption aids in rabbits
Experimental: Nothing was applied to the other eye. Thus, irritation of the absorption aid to the mucous membrane of the eyes were examined, and scores were calculated in accordance with the Draize's eye irritation evaluating method [Association of Foods, Drugs and Cosmetics" (1957)].

serum calcium level = assay: Effect of the amount of the absorption aid on the decrease of serum calcium level (calcitonin suppositories, rats); type: in vivo; conditions: intrarectal, SD male rats, one hour
Experimental: (a) About 14 g of each of the absorption aids shown in Table 1 was added to 186 g of cacao butter, and they were well mixed by a grinder. Salmon caltintonin or [Asu^1,7 ]-eel calcitonin was added gradually and mixed to form a homogeneous composition. The composition was slightly heated to make it flowable, and about 80 mg of it was cast into a suppository container made for rats, and allowed to solidify by cooling to obtain a rat suppository having a diameter of about 3 mm and a length of about 6 mm. The suppository contained 0.7 MRC units of calcitonin.
The suppository was administered to the rectum of each of […] male rats (body weight about 200 g) and the concentration of calcium in the serum was measured 1, 2, 3, and 5 hours later to examine the absorbabillity of calcitonin from the rectum. The calcium level in the serum was measured by using a calcium level measuring kit of Yatoron Co., and five rats were used for each blood withdrawal. The results are shown in Table 1 as the decrease (%) of the serum calcium level from that before administration of the calcitonin-containing suppository.
(b) Suppositories containing 0.7 MRC unit of [Aus^1.7 ]-eel calcitonin per 80 mg were prepared in the same way as in (a) above by including each of the absorption aids shown in Table 2 in the amounts indicated. Each of the suppositories was intrarectally administered to SD male rats in the same way as in (a) above, and the decrease (%) of the serum calcium level was measured one hour after the administration.

[2] = 0.1 w/v % soln, 1 hours after application
[3] = 0.1 w/v % soln, 3 hours after application
[4] = 0.1 w/v % soln, 6 hours after application
[5] = 0.1 w/v % soln, 24 hours after application
[6] = 0.1 w/v % soln, 48 hours after application
[7] = 0.1 w/v % soln, 72 hours after application
[8] = 0.1 w/v % soln, 96 hours after application
[9] = 0.1 w/v % soln, 168 hours after application
[10] = 2.4 w/v % soln, 1 hours after application
[11] = 2.4 w/v % soln, 3 hours after application
[12] = 2.4 w/v % soln, 6 hours after application
[13] = 2.4 w/v % soln, 24 hours after application
[14] = 2.4 w/v % soln, 48 hours after application
[15] = 2.4 w/v % soln, 72 hours after application
[16] = 2.4 w/v % soln, 96 hours after application
[17] = 2.4 w/v % soln, 168 hours after application

`CC(=O)Oc1ccccc1C(=O)O` [Acetylsalicylic acid, reference compound] was tested, and the “Primary irritation scores on the eyes: Cornea” value ([1]; rabbit, in vivo) was 0, the “Primary irritation scores on the eyes: Iris” value ([1]; rabbit, in vivo) was 0 and the “irritation to the mucous membrane of the eyes (in words)” value (“irritation to the mucous membrane” for short) ([1]; rabbit, in vivo) was “almost no irritation”.
`O=C1CCC(C(=O)O)N1` (racemic) [DL-Pyroglutamic acid] was tested, and the “Primary irritation scores on the eyes: Cornea” value ([1]; rabbit, in vivo) was 0, the “Primary irritation scores on the eyes: Iris” value ([1]; rabbit, in vivo) was 0 and the “irritation to the mucous membrane” value ([1]; rabbit, in vivo) was “almost no irritation”. For the same molecule, the “Decrease of the serum calcium level (%)” value (serum calcium level; absorption aid 0.8% of suppository with 0.7 MRC unit [Aus^1.7]-eel calcitonin per 80 mg) was 15.2%, the “Decrease of the serum calcium level (%)” value (serum calcium level; absorption aid 2.4% of suppository with 0.7 MRC unit [Aus^1.7]-eel calcitonin per 80 mg) was 20.1% and the “Decrease of the serum calcium level (%)” value (serum calcium level; absorption aid 7.0% of suppository with 0.7 MRC unit [Aus^1.7]-eel calcitonin per 80 mg) was 31.0%.
For `CCCCCCCCCCCCOS(=O)(=O)[O-].[Na+]` [Sodium Laurylsulfate, reference compound], the “Primary irritation scores on the eyes: Conjunctiva” value [1, 2] was 4.0, the “Primary irritation scores on the eyes: Cornea” value [1, 2] was 0 and the “Primary irritation scores on the eyes: Iris” value [1, 2] was 0. The “Primary irritation scores on the eyes: Total” value [1, 2] was 4.0, the “Primary irritation scores on the eyes: Conjunctiva” value [1, 3] was 4.0 and the “Primary irritation scores on the eyes: Cornea” value [1, 3] was 0. The “Primary irritation scores on the eyes: Iris” value [1, 3] was 0, the “Primary irritation scores on the eyes: Total” value [1, 3] was 4.0 and the “Primary irritation scores on the eyes: Conjunctiva” value [1, 4] was 0. The “Primary irritation scores on the eyes: Cornea” value [1, 4] was 0, the “Primary irritation scores on the eyes: Iris” value [1, 4] was 0 and the “Primary irritation scores on the eyes: Total” value [1, 4] was 0. For the same molecule, the “Primary irritation scores on the eyes: Conjunctiva” value [1, 5] was 0, the “Primary irritation scores on the eyes: Cornea” value [1, 5] was 0 and the “Primary irritation scores on the eyes: Iris” value [1, 5] was 0. For the same molecule, the “Primary irritation scores on the eyes: Total” value [1, 5] was 0, the “Primary irritation scores on the eyes: Conjunctiva” value [1, 6] was 0 and the “Primary irritation scores on the eyes: Cornea” value [1, 6] was 0. For the same molecule, the “Primary irritation scores on the eyes: Iris” value [1, 6] was 0, the “Primary irritation scores on the eyes: Total” value [1, 6] was 0 and the “Primary irritation scores on the eyes: Conjunctiva” value [1, 7] was 0. For the same molecule, the “Primary irritation scores on the eyes: Cornea” value [1, 7] was 0, the “Primary irritation scores on the eyes: Iris” value [1, 7] was 0 and the “Primary irritation scores on the eyes: Total” value [1, 7] was 0. The “Primary irritation scores on the eyes: Conjunctiva” value [1, 8] was 0, the “Primary irritation scores on the eyes: Cornea” value [1, 8] was 0 and the “Primary irritation scores on the eyes: Iris” value [1, 8] was 0. For the same molecule, the “Primary irritation scores on the eyes: Total” value [1, 8] was 0, the “Primary irritation scores on the eyes: Conjunctiva” value [1, 9] was 0 and the “Primary irritation scores on the eyes: Cornea” value [1, 9] was 0. The “Primary irritation scores on the eyes: Iris” value [1, 9] was 0, the “Primary irritation scores on the eyes: Total” value [1, 9] was 0 and the “Primary irritation scores on the eyes: Conjunctiva” value [1, 10] was 13.3. For the same molecule, the “Primary irritation scores on the eyes: Cornea” value [1, 10] was 0, the “Primary irritation scores on the eyes: Iris” value [1, 10] was 5.0 and the “Primary irritation scores on the eyes: Total” value [1, 10] was 18.3. The “Primary irritation scores on the eyes: Conjunctiva” value [1, 11] was 12.7, the “Primary irritation scores on the eyes: Cornea” value [1, 11] was 0 and the “Primary irritation scores on the eyes: Iris” value [1, 11] was 0. For the same molecule, the “Primary irritation scores on the eyes: Total” value [1, 11] was 12.7, the “Primary irritation scores on the eyes: Conjunctiva” value [1, 12] was 11.3 and the “Primary irritation scores on the eyes: Cornea” value [1, 12] was 0. The “Primary irritation scores on the eyes: Iris” value [1, 12] was 0, the “Primary irritation scores on the eyes: Total” value [1, 12] was 11.3 and the “Primary irritation scores on the eyes: Conjunctiva” value [1, 13] was 8.0. The “Primary irritation scores on the eyes: Cornea” value [1, 13] was 0, the “Primary irritation scores on the eyes: Iris” value [1, 13] was 0 and the “Primary irritation scores on the eyes: Total” value [1, 13] was 8.0. For the same molecule, the “Primary irritation scores on the eyes: Conjunctiva” value [1, 14] was 4.0, the “Primary irritation scores on the eyes: Cornea” value [1, 14] was 0 and the “Primary irritation scores on the eyes: Iris” value [1, 14] was 0. The “Primary irritation scores on the eyes: Total” value [1, 14] was 4.0, the “Primary irritation scores on the eyes: Conjunctiva” value [1, 15] was 2.7 and the “Primary irritation scores on the eyes: Cornea” value [1, 15] was 0. For the same molecule, the “Primary irritation scores on the eyes: Iris” value [1, 15] was 0, the “Primary irritation scores on the eyes: Total” value [1, 15] was 2.7 and the “Primary irritation scores on the eyes: Conjunctiva” value [1, 16] was 2.0. The “Primary irritation scores on the eyes: Cornea” value [1, 16] was 0, the “Primary irritation scores on the eyes: Iris” value [1, 16] was 0 and the “Primary irritation scores on the eyes: Total” value [1, 16] was 2.0. The “Primary irritation scores on the eyes: Conjunctiva” value [1, 17] was 0.7, the “Primary irritation scores on the eyes: Cornea” value [1, 17] was 0 and the “Primary irritation scores on the eyes: Iris” value [1, 17] was 0. For the same molecule, the “Primary irritation scores on the eyes: Total” value [1, 17] was 0.7 and the “irritation to the mucous membrane” value ([1]; aqueous solution applied dropwise to rabbit eye, Draize evaluation) was “fairly strong irritation”.
